Entries after “also recorded” stand apart in the source; their conditions may differ. Where a name gives a salt, the structure may show the parent alone. Read-outs that look alike come from different tables or passages of the source.
Assays:
[1] = Solubility in water; type: physicochemical; conditions: for solubility in water (in words): for typical injectable compositions
[2] = Elevated temperature storage stability in dry form (potency loss or gain by HPLC); type: physicochemical; conditions: for degraded at 24 h: 1 day
Protocol: Elevated temperature stabilities were determined by storing the preparations in dry containers at temperatures and for time periods as denoted below and potency losses or gains were determined by HPLC. A % potency gain is indicated by a plus sign in front of a figure. A less than 10% potency loss over a 2 to 4 week period at 45-56 deg. C. is usually indicative of less than 10% potency loss over a 2-3 year period at room temperature.

[3] = test system: various organisms; conditions: Aburaki et al. U.S. Pat. No. 4,406,899; listed as zwitterion form; cited from earlier work
[4] = dry powder, 45 deg. C. and above, even one week; 10080 min; cited from earlier work
[5] = Formation of insoluble particles on storage; type: physicochemical; conditions: storage at elevated temperatures
Source text: The dihydrochloride dihydrate described in Example XIII can be easily dried to give the same dihydrochloride monohydrate described in Examples XI and XII. […] Accordingly, the monohydrate carrying up to about 1% by weight of adventitious water is the preferred form (total water content ca. 2.5-4.1%).

[6] = Weight loss on drying of the hydrate; type: physicochemical; conditions: 57° C., 0.001 mm Hg over P2 O5, 5 days; or 45° C., 10 mm Hg, 2 days
Source text: The foregoing procedures of Examples XI and XII routinely produce monohydrate having a water content in the range of 2.46% to 3.70% with an average value of 3.31%. The value calculated from the stoichiometric formula is 3.15%.

[7] = 45 Deg. C., 1 week, dry container, + = potency gain, 10080 min
[8] = 45 Deg. C., 4 weeks, dry container, + = potency gain, 40320 min
[9] = 56 Deg. C., 1 week, dry container, + = potency gain, 10080 min
[10] = 56 Deg. C., 2 weeks, dry container, + = potency gain, 20160 min
[11] = dry solid, 45 Deg. C., 2 weeks, dry container, + = potency gain, read-out: PERCENT LOSS (potency)
[12] = dry solid, 100 Deg. C., dry container, + = potency gain, read-out: PERCENT LOSS (potency)
[13] = listed as di-nitric acid addition salt
[14] = 45 Deg. C., 2 weeks, dry container, + = potency gain, 20160 min
[15] = 45 Deg. C., 6 weeks, dry container, + = potency gain, 60480 min
[16] = listed as sulfuric acid addition salt, sulfate salt

CO/N=C(\C(=O)NC1C(=O)N2C(C(=O)[O-])=C(C[N+]3(C)CCCC3)CSC12)c1csc(N)n1 (stereo not drawn) [(H3 PO4)2 Salt, crystalline diphosphate salt of 7-[α-(2-aminothiazol-4-yl)-α-(Z)-methoxyiminoacetamido]-3-[(1-methyl-1-pyrrolidinio)methyl]-3-cephem-4-carboxylate]
solubility in water ([1]; listed as di-orthophosphoric acid addition salt): greater than 200 mg/ml | PERCENT LOSS (potency) [2, 7]: 0% | PERCENT LOSS (potency) [2, 8]: 1.0% | PERCENT LOSS (potency) [2, 9]: 2.7% | PERCENT LOSS (potency) [2, 10]: 5.0% | degraded at 336 h [2, 11]: 3%

CO/N=C(\C(=O)NC1C(=O)N2C(C(=O)[O-])=C(C[N+]3(C)CCCC3)CSC12)c1csc(N)n1 (centres unmarked) [(HCl)2 Salt]
solubility in water ([1]; listed as di-hydrochloric acid addition salt): greater than 200 mg/ml | PERCENT LOSS (potency) [2, 7]: 0% | PERCENT LOSS (potency) [2, 8]: 7.4% | PERCENT LOSS (potency) [2, 9]: 0% | degraded at 672 h ([2]; dry solid, 56° C., 4 weeks, read-out: potency loss on storage): 7.2% | degraded at 24 h [2, 12]: 12.4%

CO/N=C(\C(=O)NC1C(=O)N2C(C(=O)[O-])=C(C[N+]3(C)CCCC3)CSC12)c1csc(N)n1 (centres unmarked) [(HNO3)2 Salt]
solubility in water (in words) [1, 13]: reduced solubilities which are insufficient for typical injectable compositions; also recorded: not sufficiently soluble to form compositions of normal concentration for administration | solubility in water [1, 13]: about 60 mg/ml | PERCENT LOSS (potency) [2, 7]: 8.8% | PERCENT LOSS (potency) [2, 14]: 3.4% | PERCENT LOSS (potency) [2, 8]: 0.68% | PERCENT LOSS (potency) [2, 15]: 10.3% | PERCENT LOSS (potency) [2, 9]: 3.7% | PERCENT LOSS (potency) [2, 10]: 2.4%

CO/N=C(\C(=O)NC1C(=O)N2C(C(=O)[O-])=C(C[N+]3(C)CCCC3)CS[C@H]12)c1csc(N)n1 (stereo partly drawn) [H2 SO4 Salt, 7-[α-(2-aminothiazol-4-yl)-α-(Z)-methoxyiminoacetamido]-3-[(1-methyl-1-pyrrolidinio)methyl]-3-cephem-4-carboxylate sulfate salt]
solubility compared to the zwitterion form [1]: limited solubility | solubility in water (in words) [1, 16]: reduced solubilities which are insufficient for typical injectable compositions; also recorded: not sufficiently soluble to form compositions of normal concentration for administration | solubility in water ([1]; listed as crystalline sulfuric acid addition salt, sulfate salt): 25 mg/mL | solubility in water [1, 16]: about 25 mg/ml | PERCENT LOSS (potency) ([2]; 45 Deg. C., 1 week, dry container, + = potency gain, 10080 min, sulfate salt, 10080 min): 2.4 to +5% | PERCENT LOSS (potency) ([2]; 45 Deg. C., 2 weeks, dry container, + = potency gain, 20160 min, sulfate salt, 20160 min): 3% | PERCENT LOSS (potency) ([2]; 45 Deg. C., 4 weeks, dry container, + = potency gain, 40320 min, sulfate salt, 40320 min): +5% | PERCENT LOSS (potency) ([2]; 45 Deg. C., 6 weeks, dry container, + = potency gain, 60480 min, sulfate salt, 60480 min): 1.4% | PERCENT LOSS (potency) ([2]; 56 Deg. C., 1 week, dry container, + = potency gain, 10080 min, sulfate salt, 10080 min): 5 to +6% | PERCENT LOSS (potency) ([2]; 56 Deg. C., 2 weeks, dry container, + = potency gain, 20160 min, sulfate salt, 20160 min): +3% | PERCENT LOSS (potency) ([2]; 56 Deg. C., 4 weeks, dry container, + = potency gain, 40320 min, sulfate salt, 40320 min): 0 to +6% | degraded at 730 h ([2]; dry solid, 45-56 deg. C., one month): < 10%

CO/N=C(\C(=O)NC1C(=O)N2C(C(=O)[O-])=C(C[N+]3(C)CCCC3)CSC12)c1csc(N)n1 (centres unmarked) [HCl Salt]
solubility in water ([1]; listed as mono-hydrochloric acid addition salt): greater than 200 mg/ml | PERCENT LOSS (potency) [2, 7]: 4.8% | PERCENT LOSS (potency) [2, 14]: 2.3% | PERCENT LOSS (potency) [2, 8]: 6.0% | PERCENT LOSS (potency) [2, 15]: 6.4% | PERCENT LOSS (potency) [2, 9]: 6.4%

CO/N=C(\C(=O)NC1C(=O)N2C(C(=O)[O-])=C(C[N+]3(C)CCCC3)CSC12)c1csc(N)n1 (stereo not drawn) [Sesquiphosphate Salt, crystalline sesquiphosphate salt of 7-[α-(2-aminothiazol-4-yl)-α-(Z)-methoxyiminoacetamido]-3-[(1-methyl-1-pyrrolidinio)methyl]-3-cephem-4-carboxylate]
solubility in water ([1]; listed as sesqui-orthophosphoric acid addition salt): greater than 200 mg/ml | Stability, % Loss ([2]; 1 month, 37° C., 43200 min): 2.5% | Stability, % Loss ([2]; 1 week, 45° C., 10080 min): 0% | Stability, % Loss ([2]; 4 weeks, 56° C., 40320 min): 0% | Stability, % Loss ([2]; 3 days, 70° C.): 0% | degraded at 168 h ([2]; dry solid, 1 week, 56° C., read-out: Stability, % Loss): 1% | degraded at 336 h ([2]; dry solid, 2 weeks, 45° C., read-out: Stability, % Loss): 1.4% | degraded at 336 h ([2]; dry solid, 2 weeks, 56° C., read-out: Stability, % Loss): 1.4% | degraded at 672 h ([2]; dry solid, 4 weeks, 45° C., read-out: Stability, % Loss): 0.7% | degraded at 1344 h ([2]; dry solid, 8 weeks, 45° C.): 1.6% | degraded at 24 h ([2]; dry solid, 100° C., read-out: Stability, % Loss): 10.9% | degraded at 168 h ([2]; dry solid, 7 days, 70° C., read-out: Stability, % Loss): 1.9%

CO/N=C(\C(=O)NC1C(=O)N2C(C(=O)[O-])=C(C[N+]3(C)CCCC3)CS[C@H]12)c1csc(N)n1 (stereo partly drawn) [Zwitterion, 7-[α-(2-aminothiazol-4-yl)-α-(Z)-methoxyiminoacetamido]-3-[(1-methyl-1-pyrrolidinio)methyl]-3-cephem-4-carboxylate, reference compound]
spectrum of activity [3]: broader spectrum activity than ceftazidime and cefotaxime; also recorded: broad spectrum utility against various organisms | loss of activity on storage [4]: ≥ 30% | degraded at 168 h ([2]; dry solid, 45 Deg. C., 1 week, dry container, + = potency gain, read-out: PERCENT LOSS (potency)): 37% | degraded at 336 h [2, 11]: 51% | degraded at 672 h ([2]; dry solid, 45 Deg. C., 4 weeks, dry container, + = potency gain, read-out: PERCENT LOSS (potency)): 71% | degraded at 168 h ([2]; dry solid, 56 Deg. C., 1 week, dry container, + = potency gain, read-out: PERCENT LOSS (potency)): 57% | degraded at 24 h [2, 12]: 100%

CO/N=C(\C(=O)NC1C(=O)N2C(C(=O)[O-])=C(C[N+]3(C)CCCC3)CSC12)c1csc(N)n1 (stereo not drawn) [dihydrate, dihydrate of 7-[α-(2-aminothiazol-4-yl)-α-(Z)-methoxyiminoacetamido]-3-[(1-methyl-1-pyrrolidinio)methyl]-3-cephem-4-carboxylate dihydrochloride]
formation of insoluble particles [5]: formation of trace amounts of insoluble particles was observed

CO/N=C(\C(=O)NC1C(=O)N2C(C(=O)[O-])=C(C[N+]3(C)CCCC3)CSC12)c1csc(N)n1 (stereo not drawn) [monohydrate, crystalline dihydrochloride monohydrate of 7-[α-(2-aminothiazol-4-yl)-α-(Z)-methoxyiminoacetamido]-3-[(1-methyl-1-pyrrolidinio)methyl]-3-cephem-4-carboxylate]
storage stability at elevated temperatures (chemical and biological potency) [2]: similar | degraded at 504 h ([2]; dry solid, 56° C., 3 weeks): 0.6% | remaining at 504 h ([2]; dry solid, 56° C., 3 weeks, total water content ca. 2.5-4.1%, read-out: retention of potency): ≥ 96% | loss in weight on drying [6]: no loss in weight

From patent publication US5244891A, “Injectable compositions of cefepime dihydrochloride hydrate” (priority 1992, dated 1993)
